Target: Has1p (Saccharomyces cerevisiae, UniProt Q03532)
Experiment: malachite green ATPase assay, ADP competition
Format: biochemical
Settings: 1 mM ADP with 1 mM ATP; total yeast RNA; pH 6.5; 2 mM MgCl2; 30°C; data not shown

Chain of Has1p (Q03532 whole entry): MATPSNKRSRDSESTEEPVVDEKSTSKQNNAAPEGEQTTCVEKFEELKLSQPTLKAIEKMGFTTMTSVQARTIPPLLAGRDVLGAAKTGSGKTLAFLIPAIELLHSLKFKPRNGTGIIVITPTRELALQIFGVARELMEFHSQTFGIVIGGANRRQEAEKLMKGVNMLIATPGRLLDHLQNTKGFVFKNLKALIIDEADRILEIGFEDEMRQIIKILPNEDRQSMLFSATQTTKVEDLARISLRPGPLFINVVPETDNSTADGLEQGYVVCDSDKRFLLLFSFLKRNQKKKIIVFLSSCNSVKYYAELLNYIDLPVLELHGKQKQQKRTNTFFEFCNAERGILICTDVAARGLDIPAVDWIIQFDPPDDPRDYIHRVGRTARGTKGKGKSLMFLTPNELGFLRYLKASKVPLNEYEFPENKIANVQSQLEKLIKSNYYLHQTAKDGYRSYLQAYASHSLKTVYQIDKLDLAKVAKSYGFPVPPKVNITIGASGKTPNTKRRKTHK

Nc1ncnc2c1ncn2[C@@H]1O[C@H](COP(=O)(O)OP(=O)(O)O)[C@@H](O)[C@H]1O [ADP]
fold reduction of ATPase activity at 1 mM ADP: 5 fold
